The values below come from patent US10889569B2, “Condensed ring group azacyclobutyl triazole derivative, preparation method therefor and use thereof in medicine” (Jiangsu Hengrui Medicine Co., Ltd., priority 2016, dated 2021).

The target of series [1] is human V1aR (Homo sapiens (Human), UniProt P37288). In words: Inhibition activity on human V1aR (Fluo-4 calcium assay, HEK293/human V1aR stably transfected cells). Conditions: vasopressin 3 nM. The class given is cell-based. Put shortly: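 Stable HEK293/human V1aR cells, 25,000 cells/well, loaded with Fluo-4 for 30 minutes at 37° C. then 10 minutes room temperature; compounds (formulated at 10^1–10^6 nM) added 10 minutes before 3 nM vasopressin. Calcium fluorescence read immediately at 494/516; IC50 from concentration–signal curves.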

Series [2] in a line: Brain permeability of rats (Kp-unbound). The class given is in vivo. Conditions: both sexes, rat, not told, po; SD rats, 10 mg/kg intragastrically, 0.5 h after administration; read-out: Kp-unbound (blood-brain permeability index). The method, then: The activity of the compounds of the present invention on the brain permeability of rats was determined by the following experimental method:
Four SD rats (half male and half female) were maintained in a 12 hours light/12 hours dark cycle, in a constant temperature of 24±3° C. and a humidity of 50-60%, and free access to food and water. The compounds were administered intragastrically to the rats after fasting overnight. The administration dosage was 10 mg/kg. The administration group was sacrificed after blood collection at 0.5 h to 2 h after administration (blood volume: 0.5 ml). The blood sample was stored in heparinized tubes, and centrifuged for 10 minutes at 3500 rpm to separate the plasma, which was marked as plasma 1 and stored at […]. The animal was decapitated after sacrificing, and the brain tissue was collected. The residual blood in the brain tissue was sucked with a filter paper, which was marked as brain tissue 1, and stored at 0° C. ten minutes later. Another three animals were treated by the same method as that of administration group to obtain blank plasma and brain tissue 2.
The drug compounds were diluted to 50 mM with DMSO to obtain a stock solution I. An appropriate amount of stock solution I was diluted with methanol to obtain a diluted stock solution II (200 μM). 10 μl of stock solution II was moved to a 1.5 ml Eppendorf tube, and then added with 990 μl of blank plasma, and mixed well to obtain 2 μM of plasma sample 2 (concentration of DMSO≤0.2%), which was used for the determination of plasma protein binding rate at this concentration. […]
The equilibrium dialysis tube of RED Device Inserts was inserted into a 96-well plate. […] The chromatographic peak area ratios of the total drug (plasma chamber) and the free drug (buffer chamber) to the internal standard were determined directly by the LC/MS/MS method established above respectively, and the free percent (fu plasma %) was calculated.
Brain tissue protein binding equilibrium dialysis process: the blank brain tissue 2 was formulated into a blank brain homogenate with PBS (pH 7.4) according to a dilution factor of 11, and added with compound to formulate a 2 μM brain homogenate. Other procedures were the same with that of plasma protein binding, the chromatographic peak area ratios of the total drug (brain homo chamber) and the free drug (buffer chamber) to the internal standard were determined by the established LC/MS/MS method respectively, and the free percent (fu brain hom %) was calculated.
1) The drug concentrations in plasma 1 and brain tissue 1 of rats 0.5 h after administration were determined by the established LC/MS/MS method respectively, which were the total concentration (Ctotal, p and Ctotal, b); […]

pIC50: −log10 of the molar value.

Sequence of human V1aR (P37288 whole entry): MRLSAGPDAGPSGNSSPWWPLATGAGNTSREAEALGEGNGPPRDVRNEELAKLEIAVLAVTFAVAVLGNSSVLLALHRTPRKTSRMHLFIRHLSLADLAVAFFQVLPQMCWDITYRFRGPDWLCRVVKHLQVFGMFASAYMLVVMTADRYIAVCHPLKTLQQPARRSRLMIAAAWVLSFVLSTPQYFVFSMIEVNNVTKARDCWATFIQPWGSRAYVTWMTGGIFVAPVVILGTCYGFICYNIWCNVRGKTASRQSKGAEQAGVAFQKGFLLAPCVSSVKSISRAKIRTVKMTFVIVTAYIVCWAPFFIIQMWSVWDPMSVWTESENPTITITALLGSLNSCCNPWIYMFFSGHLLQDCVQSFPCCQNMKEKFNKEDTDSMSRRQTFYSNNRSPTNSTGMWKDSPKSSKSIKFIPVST

As usually defined, the pIC50 is the negative decadic logarithm of the IC50, by convention in mol/L. The term Kp denotes tissue or fluid exposure divided by exposure in the circulation. As to `COCc1nnc(N2CC(c3cccc4cc(F)ccc34)C2)n1-c1ccc(OC)nc1` [Example 2, 5-(3-(3-(6-Fluoronaphthalen-1-yl)azetidin-1-yl)-5-(methoxymethyl)-4H-1,2,4-triazol-4-yl)-2-methoxypyridine], the pIC50 in series [1] is 5.35. Moreover, in series [2], the Kp at 0.5 h worked out at 0.199.
On the same counts, the results for `COCc1nnc(N2CC(n3cc(C)c4cc(F)ccc43)C2)n1-c1ccc(OC)nc1` [Example 17, 5-Fluoro-1-(1-(5-(methoxymethyl)-4-(6-methoxypyridin-3-yl)-4H-1,2,4-triazol-3-yl)azetidin-3-yl)-3-methyl-1H-indole] are 5.36 and 0.295.
